Data published in EP3800188A1, “SUBSTITUTED PYRAZOLOPYRIMIDINES AS IRAK4 INHIBITORS” (Bayer AG, priority 2019, dated 2021).

Experiments:
[1] = molecular target: T1, human IRAK4 (Homo sapiens, UniProt Q9NWZ3); assay: Human IRAK4 kinase activity inhibition assay (IRAK4 TR-FRET assay); format: biochemical; conditions: 1 mM ATP, GST-human IRAK4, average or median values
T1 construct: GST (N); made in house; host or cells: baculovirus-infected Hi5 (BTI-TN-5B1-4) insect cells
T1 sequence (Q9NWZ3 1-460): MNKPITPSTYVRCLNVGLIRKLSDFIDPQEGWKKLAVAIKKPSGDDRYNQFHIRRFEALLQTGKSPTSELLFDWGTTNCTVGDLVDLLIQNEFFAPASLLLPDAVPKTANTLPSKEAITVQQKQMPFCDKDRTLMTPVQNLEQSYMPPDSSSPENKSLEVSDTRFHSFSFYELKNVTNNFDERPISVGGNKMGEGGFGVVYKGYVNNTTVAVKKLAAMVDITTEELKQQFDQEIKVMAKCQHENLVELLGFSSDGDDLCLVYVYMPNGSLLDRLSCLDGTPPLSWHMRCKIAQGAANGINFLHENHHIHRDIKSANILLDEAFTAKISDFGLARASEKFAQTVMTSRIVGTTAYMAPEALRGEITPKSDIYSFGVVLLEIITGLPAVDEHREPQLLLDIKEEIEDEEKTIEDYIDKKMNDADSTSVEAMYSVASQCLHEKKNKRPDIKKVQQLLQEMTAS
Outline: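 Signal was the 665/620 nm emission ratio from a europium anti-mouse-IgG, anti-phosphoserine antibody and streptavidin-XL665 complex formed over 1 h at 22°C. It was scaled between no-enzyme (100%) and no-compound (0%) wells. Beforehand, compounds (20 µM down to 0.073 nM, 11 points) sat 15 min with roughly 0.2 nM insect-cell-expressed GST-human IRAK4 before phosphorylation of a biotinylated peptide substrate.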

[2] = Metabolic stability in human liver microsomes; conditions: 1 µM compound; for CLblood, human microsomes: hepatic in vivo blood clearance calculated with well stirred liver model, '(stable)' given beside < 0.01; for Fmax, human microsomes: maximal oral bioavailability calculated with well stirred liver model, 0.5 mg/mL protein, '(stable)' given beside 100

SMILES | IC50 [1] [nM] | CLblood, human microsomes [2] | Fmax, human microsomes [2]
CCC1(O)CN(c2nc(N[C@H]3C[C@H](S(C)(=O)=O)C3)nc3c2cnn3-c2cccc(C(F)(F)F)c2)C1 [Example I-92, 3-ethyl-1-(6-{[trans-3-(methylsulfonyl)cyclobutyl]amino}-1-[3-(trifluoromethyl)phenyl]-1H-pyrazolo[3,4-d]pyrimidin-4-yl)azetidin-3-ol] | 5.61 | 0.36 L/h/kg | 73%
CS(=O)(=O)[C@H]1C[C@H](Nc2nc(N3C[C@H](O)[C@@H](F)C3)c3cnn(-c4cccc(C(F)(F)F)c4)c3n2)C1 [Example I-94, (3S,4S)-4-fluoro-1-(6-{[(1r,3S)-3-(methylsulfonyl)cyclobutyl]amino}-1-[3-(trifluoromethyl)phenyl]-1H-pyrazolo[3,4-d]pyrimidin-4-yl)pyrrolidin-3-ol] | 4.28 | 0.16 L/h/kg | 88%
O[C@H]1CN(c2nc(N[C@H]3C[C@@]4(CCN4)C3)nc3c2cnn3-c2cccc(C(F)(F)F)c2)C[C@@H]1F [Example I-98, (3S,4S)-1-{6-[(4S,6s)-1-azaspiro[3.3]heptan-6-ylamino]-1-[3-(trifluoromethyl)phenyl]-1H-pyrazolo[3,4-d]pyrimidin-4-yl}-4-fluoropyrrolidin-3-ol] | 9.99 | < 0.01 (stable) L/h/kg | 100 (stable) %
O[C@@H]1CN(c2nc(N[C@H]3C[C@H](O)C3)nc3c2cnn3-c2cccc(C(F)(F)F)c2)C[C@H]1O [Example I-101, (3R,4R)-1-(6-{[(1r,3R)-3-hydroxycyclobutyl]amino}-1-[3-(trifluoromethyl)phenyl]-1H-pyrazolo[3,4-d]pyrimidin-4-yl)pyrrolidine-3,4-diol] | 2.81 | 0.35 L/h/kg | 73%
CC1(N2CCOCC2)CN(c2nc(NC3CCS(=O)(=O)CC3)nc3c2cnn3-c2cccc(C(F)(F)F)c2)C1 [Example I-106, N-(1,1-dioxidotetrahydro-2H-thiopyran-4-yl)-4-[3-methyl-3-(morpholin-4-yl)azetidin-1-yl]-1-[3-(trifluoromethyl)phenyl]-1H-pyrazolo[3,4-d]pyrimidin-6-amine] | 9.09 | 0.68 L/h/kg | 48%
C[C@]1(O)C[C@@H](Nc2nc(N3C[C@@H](O)[C@H](O)C3)c3cnn(-c4cccc(C(F)(F)F)c4)c3n2)C1 [Example I-107] | 8.11 | 0.05 L/h/kg | 96%
C[C@]1(O)C[C@H](Nc2nc(N3C[C@@H](O)[C@H](O)C3)c3cnn(-c4cccc(C(F)(F)F)c4)c3n2)C1 [Example I-108, (3R,4R)-1-(6-{[(1r,3R)-3-hydroxy-3-methylcyclobutyl]amino}-1-[3-(trifluoromethyl)-phenyl]-1H-pyrazolo[3,4-d]pyrimidin-4-yl)pyrrolidine-3,4-diol] | 3.72 | 0.16 L/h/kg | 88%
CC1(O)CCN(C2CN(c3nc(N[C@H]4C[C@@H](O)C4)nc4c3cnn4-c3cccc(C(F)(F)F)c3)C2)CC1 [Example I-109, 1-(1-{6-[(cis-3-hydroxycyclobutyl)amino]-1-[3-(trifluoromethyl)phenyl]-1H-pyrazolo[3,4-d]pyrimidin-4-yl}azetidin-3-yl)-4-methylpiperidin-4-ol] | 10.6 | 0.33 L/h/kg | 75%
CC1(O)CCN(C2CN(c3nc(N[C@H]4C[C@@](C)(O)C4)nc4c3cnn4-c3cccc(C(F)(F)F)c3)C2)CC1 [Example I-111, 1-(1-{6-[(cis-3-hydroxy-3-methylcyclobutyl)amino]-1-[3-(trifluoromethyl)phenyl]-1H-pyrazolo[3,4-d]pyrimidin-4-yl}azetidin-3-yl)-4-methylpiperidin-4-ol] | 11.1 | 0.13 L/h/kg | 90%
O=C1CCCN1C1CN(c2nc(N[C@H]3C[C@@H](O)C3)nc3c2cnn3-c2cccc(C(F)(F)F)c2)C1 [Example I-112, 1-(1-{6-[(cis-3-hydroxycyclobutyl)amino]-1-[3-(trifluoromethyl)phenyl]-1H-pyrazolo[3,4-d]pyrimidin-4-yl}azetidin-3-yl)pyrrolidin-2-one] | 3.24 | 0.39 L/h/kg | 71%
O=C1CCCN1C1CN(c2nc(N[C@H]3C[C@H](O)C3)nc3c2cnn3-c2cccc(C(F)(F)F)c2)C1 [Example I-113, 1-(1-{6-[(trans-3-hydroxycyclobutyl)amino]-1-[3-(trifluoromethyl)phenyl]-1H-pyrazolo-[3,4-d]pyrimidin-4-yl}azetidin-3-yl)pyrrolidin-2-one] | 3.6 | 0.03 L/h/kg | 98%
OC1(CN2CCCC2)CCN(c2nc(N[C@H]3C[C@@H](O)C3)nc3c2cnn3-c2cccc(C(F)(F)F)c2)CC1 [Example I-114, 1-{6-[(cis-3-hydroxycyclobutyl)amino]-1-[3-(trifluoromethyl)phenyl]-1H-pyrazolo[3,4-d]pyrimidin-4-yl}-4-(pyrrolidin-1-ylmethyl)piperidin-4-ol] | 8.49 | 0.21 L/h/kg | 84%
O=C1CN(C2CN(c3nc(N[C@H]4C[C@@H](O)C4)nc4c3cnn4-c3cccc(C(F)(F)F)c3)C2)CCN1 [Example I-115, 4-(1-{6-[(cis-3-hydroxycyclobutyl)amino]-1-[3-(trifluoromethyl)phenyl]-1H-pyrazolo[3,4-d]pyrimidin-4-yl}azetidin-3-yl)piperazin-2-one] | 7.51 | < 0.01 (stable) L/h/kg | 100 (stable) %
O=C1C[C@H](Nc2nc(N3CC(N4CCOCC4)C3)c3cnn(-c4cccc(C(F)F)c4)c3n2)CN1 [II-1, (4S)-4-({1-[3-(difluoromethyl)phenyl]-4-[3-(morpholin-4-yl)azetidin-1-yl]-1H-pyrazolo[3,4-d]pyrimidin-6-yl}amino)pyrrolidin-2-one] | 3.46 | < 0.01 (stable) L/h/kg | 100 (stable) %
CC(C)(O)CC1CN(c2nc(NC3CCS(=O)(=O)CC3)nc3c2cnn3-c2cccc(C(F)F)c2)C1 [II-7, 1-(1-{1-[3-(difluoromethyl)phenyl]-6-[(1,1-dioxidotetrahydro-2H-thiopyran-4-yl)amino]-1H-pyrazolo[3,4-d]pyrimidin-4-yl}azetidin-3-yl)-2-methylpropan-2-ol] | 5.37 | < 0.01 (stable) L/h/kg | 100 (stable) %
CS(=O)(=O)[C@H]1C[C@H](Nc2nc(N3CC(N4CCOCC4)C3)c3cnn(-c4cccc(C(F)F)c4)c3n2)C1 [II-8, 1-[3-(difluoromethyl)phenyl]-N-[trans-3-(methylsulfonyl)cyclobutyl]-4-[3-(morpholin-4-yl)azetidin-1-yl]-1H-pyrazolo[3,4-d]pyrimidin-6-amine] | 2.01 | < 0.01 (stable) L/h/kg | 100 (stable) %
O=C(CC1CN(c2nc(NC3CCS(=O)(=O)CC3)nc3c2cnn3-c2cccc(C(F)F)c2)C1)N1CCOCC1 [II-10, 2-(1-{1-[3-(difluoromethyl)phenyl]-6-[(1,1-dioxidotetrahydro-2H-thiopyran-4-yl)amino]-1H-pyrazolo[3,4-d]pyrimidin-4-yl}azetidin-3-yl)-1-(morpholin-4-yl)ethanone] | 4.31 | 0.42 L/h/kg | 68%
CC(C)(O)C1CCN(c2nc(N[C@H]3C[C@H](S(C)(=O)=O)C3)nc3c2cnn3-c2cccc(C(F)F)c2)CC1 [II-11, 2-[1-(1-[3-(difluoromethyl)phenyl]-6-{[trans-3-(methylsulfonyl)cyclobutyl]amino}-1H-pyrazolo[3,4-d]pyrimidin-4-yl)piperidin-4-yl]propan-2-ol] | 2.67 | 0.25 L/h/kg | 81%
